# The source made the active and inactive calls.
# Tests used:
# [1] = target: T1, Heat shock factor protein 1 (Mus musculus, UniProt P38532); assay: decrease of HSF1-responsive luciferase luminescence – cell-based, NIH3T3, dose retest, confirmation (AID 2382); format: functional;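 note: NIH3T3 fibroblasts with HSF1-driven luciferase reporter stressed by proteasome inhibitor MG132; luminescence from HSF1-driven luciferase expression after 8 hours of MG132 stress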
# T1 sequence (P38532 whole entry): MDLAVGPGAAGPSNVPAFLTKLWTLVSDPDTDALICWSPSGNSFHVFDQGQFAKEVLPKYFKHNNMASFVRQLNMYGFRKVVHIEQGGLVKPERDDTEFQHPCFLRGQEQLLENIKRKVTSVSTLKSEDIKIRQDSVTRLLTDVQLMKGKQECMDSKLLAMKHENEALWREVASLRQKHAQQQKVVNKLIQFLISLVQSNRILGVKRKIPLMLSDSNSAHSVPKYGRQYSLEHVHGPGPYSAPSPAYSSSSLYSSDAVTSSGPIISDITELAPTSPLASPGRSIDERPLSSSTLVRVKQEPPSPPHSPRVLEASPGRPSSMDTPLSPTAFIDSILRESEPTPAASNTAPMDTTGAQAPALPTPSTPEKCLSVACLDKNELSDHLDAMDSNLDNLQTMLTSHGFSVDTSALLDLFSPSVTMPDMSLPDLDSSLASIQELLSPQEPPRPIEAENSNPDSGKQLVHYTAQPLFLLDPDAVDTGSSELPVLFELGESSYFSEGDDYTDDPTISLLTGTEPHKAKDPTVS
# [2] = viability of uninfected HEp-2 cells – cell-based, HTS, cytotoxicity control for RSV inhibitor project, dose response (AID 2410); format: functional; conditions: human respiratory syncytial virus
# Cytochrome P450 2C19 = Cytochrome P450 2C19 (Homo sapiens, UniProt P33261); assay: Cytochrome panel assay with activity outcomes. Panel member name: p450-cyp2c19 Compounds with AC50 equal or less than 10 uM are considered active; format: functional; conditions: read-out: AC50
# Cytochrome P450 1A2 = target: T2, Cytochrome P450 1A2 (Homo sapiens, UniProt P05177);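 note: PubChem cytochrome P450 panel assay, CYP1A2 panel member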
# T2 sequence (P05177 whole entry): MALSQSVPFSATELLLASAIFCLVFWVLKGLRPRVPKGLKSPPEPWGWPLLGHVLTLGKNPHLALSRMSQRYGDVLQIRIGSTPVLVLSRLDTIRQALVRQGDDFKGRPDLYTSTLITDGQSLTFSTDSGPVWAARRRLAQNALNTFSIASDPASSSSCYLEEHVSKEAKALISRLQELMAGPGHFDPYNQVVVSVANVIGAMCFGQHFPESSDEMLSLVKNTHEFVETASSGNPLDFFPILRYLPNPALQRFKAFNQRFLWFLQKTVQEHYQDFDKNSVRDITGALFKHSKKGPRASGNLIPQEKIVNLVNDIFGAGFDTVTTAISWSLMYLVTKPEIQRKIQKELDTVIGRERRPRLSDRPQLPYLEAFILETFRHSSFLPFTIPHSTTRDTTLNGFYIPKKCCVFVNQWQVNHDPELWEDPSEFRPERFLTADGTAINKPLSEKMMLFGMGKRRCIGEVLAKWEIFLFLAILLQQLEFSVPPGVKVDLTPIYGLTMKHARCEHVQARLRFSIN
# Cytochrome P450 3A4 = Cytochrome P450 3A4 (Homo sapiens, UniProt P08684);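 note: CYP3A4 tested as one member of a cytochrome P450 panel screen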
# Cytochrome P450 2D6 = Cytochrome P450 2D6 (Homo sapiens, UniProt P10635);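 note: CYP2D6 member of a cytochrome P450 panel assay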
# [3] = NIH3T3 cell viability loss – ATP luminescence, mouse fibroblasts, counter-screen, dose response (AID 2010); format: functional, cell-based;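 note: cells exposed to compound for about 90 hours before reading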
# Streptococcus = assay: GAS UMAA2166 growth inhibition – luminescence, BacTiterGlo, counter-screen for streptokinase expression inhibitor project, dose response (AID 1915); format: functional, organism-based;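 note: potency for reduction of bacterial viability or growth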
# [4] = Trypanosoma cruzi growth suppression in host cells – NIH3T3 host cells, beta-gal luminescence, confirmation (AID 2044); format: functional, cell-based;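 note: intracellular parasites grown in NIH/3T3 mouse fibroblasts as host cells; luminescent beta-galactosidase reporter signal from transgenic T. cruzi replicating inside host cells; inhibitors lower the luminescence signal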
# [5] = test system: Streptococcus sp. 'group A'; assay: Streptococcus pyogenes SK(-)GAS viability under kanamycin – luminescence, BacTiterGlo, confirmation, counter-screen for streptokinase expression inhibitor project, dose response (AID 1900); format: functional, organism-based
# Streptokinase A = target: T3, Streptokinase A (Streptococcus pyogenes serotype M1, UniProt P10520); assay: viability-normalized secreted streptokinase activity reduction – plasminogen activation absorbance, OD405, dose response (AID 1914); format: functional, Streptococcus pyogenes M1 GAS;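 note: secreted streptokinase activity via plasminogen activation per viability signal from cell pellet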
# T3 sequence (P10520 whole entry): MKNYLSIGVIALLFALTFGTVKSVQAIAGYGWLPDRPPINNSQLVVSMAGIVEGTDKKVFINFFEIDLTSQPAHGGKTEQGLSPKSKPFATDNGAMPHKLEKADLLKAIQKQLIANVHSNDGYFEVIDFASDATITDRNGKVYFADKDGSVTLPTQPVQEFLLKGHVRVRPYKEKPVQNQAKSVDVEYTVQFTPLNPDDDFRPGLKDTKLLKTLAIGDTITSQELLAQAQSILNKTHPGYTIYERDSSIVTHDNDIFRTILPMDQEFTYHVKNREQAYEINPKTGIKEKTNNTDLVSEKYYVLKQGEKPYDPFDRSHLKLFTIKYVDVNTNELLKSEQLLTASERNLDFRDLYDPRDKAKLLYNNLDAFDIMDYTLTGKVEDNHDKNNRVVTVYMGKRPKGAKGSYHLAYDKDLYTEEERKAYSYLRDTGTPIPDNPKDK
# [6] = Luminescence Cell-Based Dose Retest to Confirm Inhibitors of Cancer Stem Cells. [Related pubchem assays (depositor defined):AID2717, AID2721]; format: functional, Homo sapiens; conditions: Homo sapiens
# Chain of Cytochrome P450 2C19 (P33261 whole entry): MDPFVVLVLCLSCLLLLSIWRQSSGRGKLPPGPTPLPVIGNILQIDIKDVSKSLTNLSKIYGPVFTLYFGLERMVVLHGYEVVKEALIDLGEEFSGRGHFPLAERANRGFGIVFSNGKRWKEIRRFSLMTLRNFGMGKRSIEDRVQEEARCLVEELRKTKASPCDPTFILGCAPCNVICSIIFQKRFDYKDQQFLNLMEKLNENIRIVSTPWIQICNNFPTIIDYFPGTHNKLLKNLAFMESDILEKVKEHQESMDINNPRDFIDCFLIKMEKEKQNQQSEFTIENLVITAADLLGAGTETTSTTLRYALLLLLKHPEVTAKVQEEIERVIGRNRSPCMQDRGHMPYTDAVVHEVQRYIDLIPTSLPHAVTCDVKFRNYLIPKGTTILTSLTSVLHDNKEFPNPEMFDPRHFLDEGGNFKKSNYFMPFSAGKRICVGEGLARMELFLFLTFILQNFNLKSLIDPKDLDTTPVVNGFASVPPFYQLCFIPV
# Chain of Cytochrome P450 3A4 (P08684 whole entry): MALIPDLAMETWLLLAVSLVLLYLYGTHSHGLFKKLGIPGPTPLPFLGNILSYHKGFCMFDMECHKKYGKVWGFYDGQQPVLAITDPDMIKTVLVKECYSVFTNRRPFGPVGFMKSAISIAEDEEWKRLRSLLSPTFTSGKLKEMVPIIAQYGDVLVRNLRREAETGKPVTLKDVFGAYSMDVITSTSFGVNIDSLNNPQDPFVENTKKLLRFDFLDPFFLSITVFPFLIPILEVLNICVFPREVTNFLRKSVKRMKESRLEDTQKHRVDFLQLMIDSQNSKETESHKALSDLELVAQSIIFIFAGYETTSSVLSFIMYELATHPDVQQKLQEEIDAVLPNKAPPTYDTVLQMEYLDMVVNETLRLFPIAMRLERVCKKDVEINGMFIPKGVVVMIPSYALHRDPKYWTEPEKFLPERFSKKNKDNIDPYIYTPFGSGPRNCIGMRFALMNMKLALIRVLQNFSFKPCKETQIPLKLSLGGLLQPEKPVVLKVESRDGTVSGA
# Chain of Cytochrome P450 2D6 (P10635 whole entry): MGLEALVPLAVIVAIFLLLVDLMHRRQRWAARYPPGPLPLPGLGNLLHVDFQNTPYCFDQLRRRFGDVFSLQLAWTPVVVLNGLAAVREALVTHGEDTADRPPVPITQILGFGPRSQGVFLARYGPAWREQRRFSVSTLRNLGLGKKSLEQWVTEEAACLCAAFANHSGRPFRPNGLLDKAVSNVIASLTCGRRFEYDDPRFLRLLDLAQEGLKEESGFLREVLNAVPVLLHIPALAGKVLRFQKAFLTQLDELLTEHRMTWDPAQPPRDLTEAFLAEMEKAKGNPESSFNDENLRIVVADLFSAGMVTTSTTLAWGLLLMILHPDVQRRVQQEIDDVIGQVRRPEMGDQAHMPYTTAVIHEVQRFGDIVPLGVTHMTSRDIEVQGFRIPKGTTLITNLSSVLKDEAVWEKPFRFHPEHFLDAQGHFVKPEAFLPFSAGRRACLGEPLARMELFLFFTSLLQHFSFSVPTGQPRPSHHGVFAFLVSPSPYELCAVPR
Structure (SMILES),EC50 [1],CC50 [2],also measured
COc1ccccc1CCC(=O)OCC(=O)Nc1cccc(S(=O)(=O)N2CCOCC2)c1,> 195 µM (not active),,
O=S(=O)(c1cccc(-c2csc(-c3cccnc3)n2)c1)N1CCCCC1,,28.9 µM (active),
CCN(CC)CCNCc1cc(Cl)ccc1OCc1ccccc1F,> 195 µM (not active),,
O=C(COC(=O)c1ccccc1C(=O)c1ccccc1)Nc1ccc(SC(F)F)cc1,,16.4 µM (active),
COc1ccc(-c2cc(C(=O)Nc3ccc(S(N)(=O)=O)cc3)c3ccccc3n2)cc1OC,> 195 µM (not active),,
COc1cccc(-c2c(NC(C)=O)n(C)c3ccccc3c2=O)c1,> 195 µM (not active),,
Cc1c(C(=O)NNC(=O)Nc2ccc([N+](=O)[O-])cc2)oc2ccccc12,,> 50 µM (active),
Cc1cccc(OCC(=O)Nc2cccc(C(=O)NCC(C)C)c2)c1,> 195 µM (not active),,
Cc1cc(-n2c(C)cc(C(=O)COC(=O)CNC3=NS(=O)(=O)c4ccccc43)c2C)no1,,25.8 µM (active),
O=C(CSc1ccc(-c2ccccn2)nn1)NC1CCCCC1,> 195 µM (not active),,
Cc1cc(C(=O)CSc2ccc(F)cc2)cc(C)c1OC(=S)N(C)C,< 0.16 µM (active),,
COc1ccc(CCNC(=O)Cc2nn(C)c(=O)c3ccccc23)cc1OC,> 195 µM (not active),,
CN1CCc2c(sc3c2c(=O)n(-c2ccc(Cl)cc2)c2nncn32)C1,> 195 µM (not active),,
Cc1ccc(-c2nn3c(C)nnc3s2)cc1N,,22.1 µM (active),
CC(C)=CCN1CCN(Cc2cc(F)ccc2-n2nc(C)cc2C)CC1CCO (stereo not drawn),> 195 µM (not active),,
CCOC(=O)c1ccc(N/C=C/C(=O)c2ccc(OC)cc2)cc1,> 195 µM (not active),,AC50 (Cytochrome P450 2C19): 2.82 µM (inconclusive); AC50 (Cytochrome P450 1A2): 22.4 µM (inconclusive); AC50 (Cytochrome P450 3A4): 6.31 µM (inconclusive)
O=[N+]([O-])c1ccc2nc(SCc3ccccc3Cl)sc2c1,,29 µM (active),

Structure (SMILES),EC50 [1],CC50 [2],also measured
CCn1cnc2cc(NCc3ccccc3Cl)ccc21,,25 µM (active),
CCC1(c2ccccc2)NC(=O)N(CC(=O)Nc2cc(S(=O)(=O)N3CCCCCC3)ccc2OC)C1=O (stereo not drawn),,29.9 µM (active),
CCS(=O)(=O)N1CCN(C(=O)c2ccccc2)CC1,> 195 µM (not active),,
Cn1cc(/C=C2\SC(=O)N(c3ccc(O)cc3)C2=O)c2ccccc21,,16 µM (active),
CCOc1ccc(NCc2nnc(SCc3ccccc3Cl)n2-c2ccccc2)cc1,> 195 µM (not active),,AC50 (Cytochrome P450 2D6): 25.1 µM (inconclusive)
Cc1cc(C2(c3cc(C)c(NC(=O)CN4CCOCC4)c(C)c3)CCCCC2)cc(C)c1NC(=O)CN1CCOCC1,> 195 µM (not active),,
Cc1ccc(S(=O)(=O)N(C)CC(=O)N2CCc3ccccc32)cc1,> 195 µM (not active),,
Cc1ccc2c(c1)c1c3n2CCN(C(=O)Cn2c(-c4ccccc4)noc2=O)C3CCC1 (stereo not drawn),,38.8 µM (active),
Cc1ccc(Nc2nc(N)c([N+](=O)[O-])c(NCc3ccco3)n2)cc1,,> 50 µM (active),
Cc1ccnc(NC(c2ccsc2)c2ccc3ccc(C)nc3c2O)c1 (stereo not drawn),> 195 µM (not active),,EC50 [3]: 9.38 µM (active); EC50 (Streptococcus): 20.5 µM (active); EC50 [4]: 1.64 µM (active); EC50 [5]: 10.6 µM (active); EC50 (Streptokinase A): > 150 µM (not active)
CCC1CCCCN1CCCNC(=O)CSc1nc2nc(C)c(Cc3ccc(C)cc3)c(C)n2n1 (stereo not drawn),> 195 µM (not active),,
CCOC(=O)c1c(NC(=O)COC(=O)c2nccnc2N)sc(C(=O)N(C)C)c1C,> 195 µM (not active),,
O=C(NCc1nc2ccccc2[nH]1)C1=C[C@@H](c2csc3ccccc23)C[C@@H](OCc2ccc(CO)cc2)O1,,39 µM (active),
COn1c2c(c3c4no[n+]([O-])c4ccc31)CCCC2,,16.5 µM (active),
CC(C)(C)C1CCc2c(sc(NC(=O)CSc3nc[nH]n3)c2C#N)C1 (stereo not drawn),> 195 µM (not active),,AC50 [6]: 4.46 µM (active)
CC(C)(C)c1ccc(OCc2ccc(C(=O)N/N=C/c3ccc([N+](=O)[O-])cc3)o2)cc1,,23.3 µM (active),

# Reference: ChEMBL document CHEMBL1201862, “PubChem BioAssay data set” (2004)
